Assay [1] has as its system B. henselae. Briefly: MIC assay in liquid culture media (OD600). In kind it is cell-based, Bartonella henselae. The settings on record: Bartonella henselae, read-out: MIC. The procedure: (§1) The B. henselae strains used were San Antonio 2, 267HO04, a human clinical isolate and B. vinsonii subsp. berkhoffii. Both the bacteria were initially grown on tryptic soy agar (TSA) supplemented with 5% defibrinated sheep blood plates that were either pre-made (Remel, R01198) or homemade, in a humidified atmosphere at 37° C. with 5% CO2 for 7 days. For the preparation of liquid cultures, an individual well-grown colony from the plate was resuspended in 15 ml Falcon tubes containing 3 mL of either Schneider's insect media supplemented with 10% FBS, or Grace's insect media (Gibco, 11605-094) supplemented with 10% FBS, or BAPGM serum-free liquid media. The cultures grew for 7 more days in the atmosphere as above without shaking. The number of viable bacteria was determined by either plating serial dilutions of the culture on plates for CFU or by live/dead staining. Before every experiment, bacteria were mixed well and passed through 22-gauge needle to break large clumps of bacteria.
(§2) Optical density (OD) of 7-day old bacterial liquid culture that was grown from an individual colony was measured using a spectrophotometer (Bio-Rad, SmartSpec 300, 170-2501). Bacterial culture was then diluted down to an OD of 0.1 ? 3×10^8 cfu/ml with the respective media.
(§3) To determine the MIC of the antibiotics and for the visualization of the bacterial growth, a clear 96-well plate was used. Into each well of a 96-well plate, 50 μl of the 0.1 OD bacterial culture and 50 μl of the liquid media containing antibiotics were added to the wells bringing the total volume to 100 μl of 0.05 OD bacteria (CFU ? 1.5×10^7) in each well. Wells containing only bacteria with solvent used in the dilution of the antibiotics served as a positive control to verify the growth of bacteria. As a negative control, wells containing only media and solvents were used. Each concentration of diluted antibiotic was run in 4 replicates to minimize the error rate. The 96-well plate was covered with the lid and incubated at 37° C. with 5% CO2. OD of the culture was read after 48 hrs and 96 hrs using a hybrid multi-mode microplate reader (Biotek, Synergy H4 hybrid reader) at OD600. The assay was repeated three times.
(§4) Therapeutic agent stocks were prepared in the following solvents: 10 mg/ml of ceftriaxone (USP), doxycycline (Fisher scientific, D9891-1G), gentamicin (Fisher scientific, 1405-41-0), ampicillin (Fisher scientific, 69-52-3) and azlocillin (Flightpath) in sterile cell culture grade water, whereas 5 mg/ml of azithromycin (Sigma, PZ0007-5MG) was dissolved in sterile cell culture grade DMSO. Antibiotics were then aliquoted and stored at either −80° C. or −20° C. until further use. On the day of assay, these stock concentrations were diluted to 1 mg/ml and 100 μg/ml in the respected bacterial culture media for MIC and cell-free, liquid culture MBC assays. For the DH82 cell-based MBC assay, antibiotics were diluted in EMEM media supplemented with 15% heat inactivated FBS.
(§5) The determination of susceptibility to therapeutic agents was performed in liquid culture media. Six different therapeutic agents were tested with multiple different concentrations against B. henselae and B. vinsonii. Therapeutic agent concentrations tested were as follows: Ceftriaxone 0.001, 0.01, 0.1, 0.3, 0.5, 1, 2, and 5 μg/ml; doxycycline 0.001, 0.01, 0.1, 0.3, 0.5, 1, 2, 5, and 10 μg/ml, gentamicin: 0.01, 0.1, 0.3, 0.5, 1, 2, 4, 8, and 16 μg/ml, and azithromycin: 0.001, 0.005, 0.02, 0.1, 0.3, 0.5, 1, 2, 5, and 10 μg/ml, were tested based on previous antibiotic susceptibility studies. The following azlocillin dilutions were included: 0.001, 0.005, 0.01, 0.02, 0.5, 1, 2, and 5 μg/ml. The ampicillin dilutions included were as follows: 0.001, 0.005, 0.01, 0.02, 0.5, 1, 2, 4, and 8 μg/ml. Both the species of Bartonella were susceptible to all the antibiotics that were used in BAPGM and Grace's culture liquid mediums. […]

For assay [2], the system named is B. vinsonii. Put plainly: MIC assay in liquid culture media (OD600). In kind it is cell-based, B. vinsonii subsp. berkhoffii. The settings on record: Grace's insect media, read-out: MIC. On the procedure: as §1, §2, §3, §4, §5
Assay [3] deals with B. henselae. Put plainly: Cell-free, liquid culture MBC assay. The settings on record: Bartonella henselae, 96 hrs, plated on blood agar, read-out: MBC. In kind it is cell-based, Bartonella henselae. The procedure: as §1
(§6) Briefly, the bacterial culture that was treated with therapeutic agents for 96 hrs was collected into a 1.5 ml microcentrifuge tubes and centrifuged at 7000 rpm for 10 min. The supernatant was removed, and the bacterial pellet was washed with 1×PBS twice. The bacterial pellet was then resuspended in 100 μL of 1×PBS, plated onto blood agar plates and incubated at 37° C. with 5% CO2 for about 14 days. This assay was repeated three times with all the 6 different antibiotics (azlocillin, azithromycin, ceftriaxone, doxycycline, gentamicin and ampicillin) and at different concentrations.
as §4
For this assay, both B. henselae and B. vinsonii were grown in Grace's insect media and were tested against all of the 6 antibiotics (ceftriaxone, doxycycline, gentamicin, azithromycin, azlocillin, ampicillin).

For assay [4], the system named is B. vinsonii. Put plainly: Cell-free, liquid culture MBC assay. Type of assay: cell-based, B. vinsonii subsp. berkhoffii. The settings on record: 96 hrs, plated on blood agar, read-out: MBC. The procedure: as §1, §6, §4
(§7) For this assay, both B. henselae and B. vinsonii were grown in Grace's insect media and were tested against all of the 6 antibiotics (ceftriaxone, doxycycline, gentamicin, azithromycin, azlocillin, ampicillin). […] However, ceftriaxone, gentamicin, azithromycin, and azlocillin were all bactericidal and completely eliminated the growth at concentrations below 10 µg/ml. Table 2 provides comparison of MBCs for B. henselae and B. vinsonii strains in cell-free liquid culture medium determined by incubating the bacteria with antibiotics in a 96-well plate and plating on tryptic soy agar supplemented with 5% sheep blood. Additionally, MBC for B. henselae determined by DH82 cell-based assay (right column) is provided.

The test system of assay [5] is B. henselae and B. vinsonii. Briefly: Cell-free MBC assay, summary over both species. The note with it: both species; Grace's insect media. Type of assay: cell-based, Bartonella. The procedure: as §6, §7
Assay [6] concerns intracellular B. henselae in DH82 cells. Put plainly: DH82 cell-based MBC assay (coculture). Further details: species or system Bartonella henselae (canine DH82 cells). The note with it: Bartonella henselae; B. henselae; DH82 cell-based assay; 96 hours; read-out: MBC. The procedure: DH82 are a canine cell line having a macrophage-like morphology. Cells were initially cultured in T75-Flasks (Corning, 430641U) until confluency was reached and were split at a ratio of 1:4 for every 2-3 days. Cells were then seeded into either 24-well cell culture plates (Corning, 3526) for coculture assay or 8-well chamber slides (Millipore #PEGGS0816) for immunofluorescence assays. A total of 50,000 cells were seeded into each well of a 24-well plate or per chamber of an 8-well chamber slide with EMEM with 15% FBS and incubated for 24-48 hours before infections.
as §4
Bacteria (B. henselae) that were grown in Grace's insect media, were centrifuged at 7000 rpm for 10 min. The supernatant was removed and washed with 1×PBS for three times. After the washes, pellet was resuspended in EMEM media supplemented with 15% heat inactivated FBS. This bacterial suspension was then added to DH82 cells at a multiplicity of infection (MOI) of 1:50 and incubated for 2 hours. After 2 hours, unbound bacteria were removed by washing the cells with only EMEM media 3 times each 15 min wash. Cells were then incubated with EMEM+15% FBS media at 37° C. with 5% CO2 for 48 hours.
After 48 hrs of incubation, the media was removed from the cells and the therapeutic agents that were diluted in EMEM+15% FBS was added. Each therapeutic agent was diluted at 11 different concentrations (16, 8, 4, 2, 1, 0.5, 0.25, 0.125, 0.062, 0.031, 0.0156 μg/ml), as described above and incubated for 96 hours. […] The bactericidal activity of the therapeutic agents were then evaluated by plating the lysed cells on blood agar plates. Briefly, infected DH82 cells were initially washed for 30 min twice to remove the antibiotics that were added. Later, cells were osmotically lysed by adding 1 ml of sterile ice-cold distilled water and incubated for 5 min on ice. The lysed cells were then plated onto blood agar plates and incubated at 37° C. with 5% CO2 for about 10 days to evaluate the growth of viable B. henselae. This experiment was conducted in duplicates and repeated twice with all 6 antibiotics including 11 different concentrations. The untreated infected cells were used as a positive control and untreated uninfected cells served as a negative control. The CFU counts are presented as average±standard deviation.
To evaluate the bactericidal activity and to determine if these antibiotics could penetrate the eukaryotic […], a new DH82 cell-based coculture system was utilized. […] Uninfected cells stained with primary rabbit B. henselaehyperimmunized polyclonal (primary) and goat anti-rabbit IgG Alexa fluor 594 (secondary) antibodies were used as a negative control. As an isotype control, DH82 cells infected with B. henselae and incubated with primary rabbit IgG were used.

The test system of assay [7] is B. henselae. The note with it: cited from earlier work.
Assay [8] deals with B. henselae. The settings on record: E-test methodology or agar dilution method; cited from earlier work.

Like-named read-outs stand apart in the source and are kept apart here. A value given as a limit tells only on which side of the number the result lay.

The values that follow come from patent US20240269158A1, “THERAPEUTIC AGENTS AND METHODS FOR TREATMENT OF BARTONELLOSIS” (THE ADMINISTRATORS OF THE TULANE EDUCATIONAL FUND, priority 2021, published 2024).

The term MIC denotes the lowest concentration that inhibits growth of the organism. One may read the MBC as the lowest tested concentration that kills the bacteria rather than only halting them.

As for `CC1(C)S[C@@H]2[C@H](NC(=O)[C@H](N)c3ccccc3)C(=O)N2[C@H]1C(=O)O` [Ampicillin, ampicillin], the MIC in the assay with B. henselae [1] (Grace's insect media) was 0.02 to 0.1 mg/L; in the assay on B. vinsonii [2], 0.01 to 0.02 mg/L. The MBC in the assay on B. henselae [3] is above 8 mg/L; in the assay with B. vinsonii [4] it was above 8 mg/L; in assay [6] it was above 16 mg/L. Further, the “concentration that did not completely inhibit the growth of bacteria” value in assay [5] was above 8 µg/mL.

Turning to `C[C@H]1c2cccc(O)c2C(=O)C2=C(O)[C@]3(O)C(=O)C(C(N)=O)=C(O)[C@@H](N(C)C)[C@@H]3[C@@H](O)[C@@H]21` [Doxycycline, doxycycline], the minimum inhibitory concentration (MIC) in the assay on B. henselae [1] (BAPGM) is 0.01 to 0.1 mg/L; in the assay on B. henselae [1] (Grace's insect media), 0.01 to 0.1 mg/L; with B. henselae [1] (Schneider's insect medium), above 0.3 mg/L; with B. vinsonii [2], 0.01 to 0.1 mg/L. Moreover, the MBC was above 10 mg/L in the assay on B. henselae [3], above 10 mg/L in the assay with B. vinsonii [4] and above 16 mg/L in assay [6]. Further, the “concentration that did not completely inhibit the growth of bacteria” value in assay [5] is above 10 µg/mL.

Turning to `O=C(O)c1cn(C2CC2)c2cc(N3CCNCC3)c(F)cc2c1=O` [ciprofloxacin], in the assay with B. henselae [7], the “activity against growing bacterial culture” value is “effective” and the “activity against stationary phase B. henselae” value was “very poor activity”.

With `CC[C@H]1OC(=O)[C@H](C)[C@@H](O[C@H]2C[C@@](C)(OC)[C@@H](O)[C@H](C)O2)[C@H](C)[C@@H](O[C@@H]2O[C@H](C)C[C@H](N(C)C)[C@H]2O)[C@](C)(O)C[C@@H](C)C(=O)[C@H](C)[C@@H](O)[C@]1(C)O` [crythromycin], in the assay with B. henselae [7], the “activity against growing bacterial culture” value is reported as “effective” and the “activity against stationary phase B. henselae” value is on record as “very poor activity”.

Regarding `CO[C@H]1/C=C/O[C@@]2(C)Oc3c(C)c(O)c4c(O)c(c(/C=N/N5CCN(C)CC5)c(O)c4c3C2=O)NC(=O)/C(C)=C\C=C\[C@H](C)[C@H](O)[C@@H](C)[C@@H](O)[C@@H](C)[C@H](OC(C)=O)[C@@H]1C` [rifampin], in the assay on B. henselae [7], the “activity against growing bacterial culture” value is recorded as “effective” and the “activity against stationary phase B. henselae” value was “very poor activity”. Besides, in the assay on B. henselae [8], the “inhibition in the growth of B. henselae in vitro” value was “Inhibition in the growth”.
